Test results reported in patent US20040198789A1, “Lercanidipine/ARB/diuretic therapeutic combinations” (Recordati Ireland Limited, priority 2003, published 2004).

Tests used:
ACE = ACE (Homo sapiens, UniProt P12821); details: cited from earlier work
[1] = cited from earlier work; for time of peak serum/plasma concentration: following oral administration; for terminal half-life: in vivo
[2] = tested on: reperfusion-induced hypertension in uninephrectomized anesthetized rats; test: Model of acute angiotensin-mediated renal hypertension in anesthetized rats (SBP, DBP, HR); assay type: in vivo, rat
Procedure: Male Sprague-Dawley rats, weighing 250-300 g, were anaesthetized with pentobarbital sodium (35 mg/kg, i.p.) and placed on a thermic blanket. The temperature was maintained at 37° C. with a thermoregulator via a rectal probe. The animals were tracheotomized to facilitate spontaneous breathing. A polyethylene catheter was placed in the left jugular vein to allow for infusion of pentobarbital sodium to maintain anesthesia. The left femoral vein and artery were cannulated with polyethylene catheters to allow drugs administration and to monitor blood pressure, respectively.
Animals then underwent a left nephrectomy by excising the left kidney via a flank incision. The right kidney and renal vein, artery and ureter were then exposed via a right retroperitoneal incision, under a dissecting microscope. Silk threads were placed around both vessels and ureter. The cavity was then covered with Vaseline oil.
After 30-60 minutes of basal recordings of arterial blood pressure and heart rate the threads around the renal vessels and ureter were tied close to the renal hilum to induce complete renal ischemia of the right kidney. After 2 hours of ischemia, the threads were removed to allow renal reperfusion and urine output.
For irbesartan experiments and comparisons, control (vehicle) or drug (irbesartan (100 μg/kg), lercanidipine (7.5 μg/kg), or both lercanidipine (7.5 μg/kg) and irbesartan (100 μg/kg)) were administered intravenously at 5 min after reperfusion was begun.
Results were expressed as mean values ±S.E. (in the tables) and in percent change observed.
To evaluate the effects of drugs administration on blood pressure and heart rate within each group, two-way ANOVA and Dunnet's test were used (“within treatment”). To evaluate the statistical differences among the treatment groups, data are analyzed using a three-way ANOVA (analysis of variance) with repeated measures on factor time and pre-planned multiple comparisons. The analysis was performed using, for each treatment, delta values (log transformation). […] (“between treatments”).

AT1 receptor = target: T1, AT1 receptor (Homo sapiens, UniProt P30556); details: cited from earlier work
T1 sequence (P30556 1-359): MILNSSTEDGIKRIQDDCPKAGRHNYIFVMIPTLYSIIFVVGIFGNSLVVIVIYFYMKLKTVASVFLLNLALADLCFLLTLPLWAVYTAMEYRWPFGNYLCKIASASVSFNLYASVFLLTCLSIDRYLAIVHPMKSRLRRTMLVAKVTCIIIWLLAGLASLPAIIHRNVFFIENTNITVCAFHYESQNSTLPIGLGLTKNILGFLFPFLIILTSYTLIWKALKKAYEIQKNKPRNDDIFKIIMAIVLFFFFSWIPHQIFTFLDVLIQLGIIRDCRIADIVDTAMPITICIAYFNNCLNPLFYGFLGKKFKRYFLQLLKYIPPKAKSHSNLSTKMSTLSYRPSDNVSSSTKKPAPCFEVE

[3] = tested on: reperfusion-induced hypertension in uninephrectomized anesthetized rats; test: Model of acute angiotensin-mediated renal hypertension in anesthetized rats (SBP, DBP, HR); assay type: in vivo, rat; remark: listed apart in the source
[4] = between treatments, three-way ANOVA on delta values, lercanidipine 7.5 μg/kg, irbesartan 100 μg/kg i.v.
[5] = irbesartan 100 μg/kg i.v., n=6, time 0 min, basal, pre-drug
[6] = irbesartan 100 μg/kg i.v., n=6, time 120 min, end of ischemia, pre-drug
[7] = irbesartan 100 μg/kg i.v., n=6, time 130 min, 5 min after drug
[8] = irbesartan 100 μg/kg i.v., n=6, time 135 min, 10 min after drug
[9] = irbesartan 100 μg/kg i.v., n=6, time 150 min, 25 min after drug
[10] = irbesartan 100 μg/kg i.v., n=6, time 165 min, 40 min after drug
[11] = irbesartan 100 μg/kg i.v., n=6, time 180 min, 55 min after drug
[12] = irbesartan 100 μg/kg i.v., n=6, time […], 5 min reperfusion, pre-drug
[13] = valsartan 30 μg/kg i.v., n=7, time 0 min, basal, pre-drug
[14] = valsartan 30 μg/kg i.v., n=7, time 120 min, end of ischemia, pre-drug
[15] = valsartan 30 μg/kg i.v., n=7, time 130 min, 5 min after drug
[16] = valsartan 30 μg/kg i.v., n=7, time 135 min, 10 min after drug
[17] = valsartan 30 μg/kg i.v., n=7, time 150 min, 25 min after drug
[18] = valsartan 30 μg/kg i.v., n=7, time 165 min, 40 min after drug
[19] = valsartan 30 μg/kg i.v., n=7, time 180 min, 55 min after drug
[20] = valsartan 30 μg/kg i.v., n=7, time […], 5 min reperfusion, pre-drug
[21] = between treatments, three-way ANOVA on delta values, lercanidipine 10 μg/kg, valsartan 30 μg/kg i.v.

Sequence of ACE (P12821 30-1306, species assumed): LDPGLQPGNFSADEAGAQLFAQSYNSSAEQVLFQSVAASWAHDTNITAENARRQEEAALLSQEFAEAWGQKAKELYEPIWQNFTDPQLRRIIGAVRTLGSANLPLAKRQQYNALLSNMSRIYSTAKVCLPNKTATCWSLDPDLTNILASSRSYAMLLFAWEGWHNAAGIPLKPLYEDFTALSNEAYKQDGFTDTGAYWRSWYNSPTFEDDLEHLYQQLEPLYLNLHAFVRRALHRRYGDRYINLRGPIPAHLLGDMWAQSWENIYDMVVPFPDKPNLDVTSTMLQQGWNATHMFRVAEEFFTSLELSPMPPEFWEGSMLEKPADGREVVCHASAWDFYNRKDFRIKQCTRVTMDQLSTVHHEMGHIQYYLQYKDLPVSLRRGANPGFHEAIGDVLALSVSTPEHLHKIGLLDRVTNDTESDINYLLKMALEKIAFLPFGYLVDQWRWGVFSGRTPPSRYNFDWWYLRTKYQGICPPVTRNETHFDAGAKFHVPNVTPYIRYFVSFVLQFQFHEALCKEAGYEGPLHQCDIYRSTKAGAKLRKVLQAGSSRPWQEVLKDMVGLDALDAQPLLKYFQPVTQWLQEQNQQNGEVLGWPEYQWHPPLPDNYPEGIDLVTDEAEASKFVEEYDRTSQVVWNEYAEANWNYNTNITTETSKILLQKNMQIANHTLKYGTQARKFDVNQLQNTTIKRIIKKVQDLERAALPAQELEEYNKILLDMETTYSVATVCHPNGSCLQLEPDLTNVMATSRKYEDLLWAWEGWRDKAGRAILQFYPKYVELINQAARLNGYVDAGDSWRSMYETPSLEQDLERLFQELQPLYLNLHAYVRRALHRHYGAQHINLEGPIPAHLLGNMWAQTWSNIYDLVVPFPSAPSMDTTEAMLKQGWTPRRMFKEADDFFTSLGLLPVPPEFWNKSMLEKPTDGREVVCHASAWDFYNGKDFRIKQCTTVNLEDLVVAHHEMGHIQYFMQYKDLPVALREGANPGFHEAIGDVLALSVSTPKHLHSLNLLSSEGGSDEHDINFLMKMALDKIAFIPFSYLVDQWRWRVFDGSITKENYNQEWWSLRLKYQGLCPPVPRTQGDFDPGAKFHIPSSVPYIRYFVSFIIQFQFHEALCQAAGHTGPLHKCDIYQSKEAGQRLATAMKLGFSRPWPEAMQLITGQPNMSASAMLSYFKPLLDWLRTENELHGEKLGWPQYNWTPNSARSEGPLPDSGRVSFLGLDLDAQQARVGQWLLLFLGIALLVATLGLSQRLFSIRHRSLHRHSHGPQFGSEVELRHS

CCCc1nc(C(C)(C)O)c(C(=O)O)n1Cc1ccc(-c2ccccc2-c2nnn[nH]2)cc1 [olmesartan, 4-(1-hydroxy-1-methylethyl)-2-propyl-1-[p-(o-1H-tetrazol-5-ylphenyl)benzyl]imidazole-5-carboxylic acid]
inhibition of ACE (ACE): does not inhibit
cleared in the urine ([1]; following oral administration of olmesartan): 35 to 50%
time of peak serum/plasma concentration [1]: 1 to 2 h

CCCCC1=NC2(CCCC2)C(=O)N1Cc1ccc(-c2ccccc2-c2nnn[nH]2)cc1 [irbesartan, 2-butyl-3-[[2′-(1H-tetrazol-5-yl)[1,1′-biphenyl]-4-yl]methyl]-1,3-diazaspiro[4.4]non-1-en-4-one]
Diastolic blood pressure: general differences among groups: p vs Vehicle [2, 4]: p < 0.05
Heart rate differences among groups: p vs Vehicle [2, 4]: ns
Systolic blood pressure differences among groups: p vs Vehicle [2, 4]: ns
DBP [2, 5]: 63.8 ± 3.5 mmHg
HR [2, 5]: 373.3 ± 14.5 beats/min
SBP [2, 5]: 113.3 ± 6.7 mmHg
DBP [2, 6]: 59.0 ± 2.0 mmHg
HR [2, 6]: 360.0 ± 13.4 beats/min
SBP [2, 6]: 112.0 ± 5.6 mmHg
DBP [2, 7]: 86.3 ± 5.8 b mmHg
HR [2, 7]: 341.7 ± 13.8 beats/min
SBP [2, 7]: 134.3 ± 5.5 b mmHg
DBP [2, 8]: 90.0 ± 5.6 b mmHg
HR [2, 8]: 346.7 ± 13.6 beats/min
SBP [2, 8]: 138.7 ± 5.3 b mmHg
DBP [2, 9]: 91.7 ± 6.1 b mmHg
HR [2, 9]: 361.7 ± 7.5 a beats/min
SBP [2, 9]: 139.0 ± 5.7 b mmHg
DBP [2, 10]: 85.7 ± 6.6 b mmHg
HR [2, 10]: 363.3 ± 11.8 a beats/min
SBP [2, 10]: 136.0 ± 7.6 b mmHg
DBP [2, 11]: b 79.3 ± 8.1 b mmHg
HR [2, 11]: 375.0 ± 13.1 b beats/min
SBP [2, 11]: 125.7 ± 8.3 mmHg
DBP [2, 12]: 107.0 ± 4.8 mmHg
HR [2, 12]: 336.7 ± 14.1 beats/min
SBP [2, 12]: 153.7 ± 5.1 mmHg
effect on heart rate (in words) ([2]; lercanidipine 7.5 μg/kg, irbesartan 100 μg/kg i.v., alone or together): no statistically significant change in heart rate
effect on blood pressure (in words) ([2]; lercanidipine 7.5 μg/kg, irbesartan 100 μg/kg i.v., alone or together, 5 min after reperfusion): statistically significant decrease in both systolic and diastolic blood pressure
greater affinity for AT1 receptor compared to AT2 receptor (AT1 receptor): more than 8500 fold
inhibition of ACE (ACE): does not inhibit
time of peak serum/plasma concentration [1]: 1.5 to 2 h

CCCCc1nc(Cl)c(CO)n1Cc1ccc(-c2ccccc2-c2nnn[nH]2)cc1.[K] [losartan, 2-butyl-4-chloro-1-[p-(o-1H-tetrazol-5-ylphenyl)-benzyl]imidazole-5-methanol monopotassium salt]
inhibition of ACE (ACE): does not inhibit
time of peak serum/plasma concentration [1]: 1 h
terminal half-life [1]: about 2 hours

CCCCc1nc(Cl)c(C(=O)O)n1Cc1ccc(-c2ccccc2-c2nn[nH]n2)cc1 [active carboxylic acid metabolite]
time of peak serum/plasma concentration [1]: 3 to 4 h
terminal half-life [1]: 6 to 9 h

CCCc1nc2c(C)cc(-c3nc4ccccc4n3C)cc2n1Cc1ccc(-c2ccccc2C(=O)O)cc1 [Telmisartan, 4′-[1,4′-dimethyl-2[-propyl[2,6′-bi-1H-benzimidazol]-1′-yl)methyl]-[1,1′-biphenyl]-2-carboxylic acid]
inhibition of ACE (ACE): does not inhibit
time of peak serum/plasma concentration [1]: 0.5 to 1 h
administered dose eliminated unchanged in feces via biliary excretion ([1]; intravenous or oral administration): > 97%

CCCCC(=O)N(Cc1ccc(-c2ccccc2-c2nnn[nH]2)cc1)[C@H](C(=O)O)C(C)C [valsartan, N-(1-oxopentyl)-N-[[2′-(1H-tetrazol-5-yl)[1,1′-biphenyl]-4-yl]methyl]-L-valine]
DBP [2, 13]: 66.7 ± 4.1 mmHg
HR [2, 13]: 372.9 ± 8.4 beats/min
SBP [2, 13]: 126.4 ± 5.5 mmHg
DBP [2, 14]: 62.1 ± 4.4 mmHg
HR [2, 14]: 366.4 ± 10.9 beats/min
SBP [2, 14]: 120.1 ± 4.3 mmHg
DBP [2, 15]: 90.4 ± 4.4 b mmHg
HR [2, 15]: 372.1 ± 10.0 beats/min
SBP [2, 15]: 145.6 ± 1.7 mmHg
DBP [2, 16]: 87.1 ± 5.2 b mmHg
HR [2, 16]: 381.4 ± 7.3 beats/min
SBP [2, 16]: 143.4 ± 1.0 a mmHg
DBP [2, 17]: 81.4 ± 4.5 b mmHg
HR [2, 17]: 382.1 ± 6.9 beats/min
SBP [2, 17]: 136.7 ± 1.9 b mmHg
DBP [2, 18]: 79.7 ± 4.6 b mmHg
HR [2, 18]: 375.7 ± 7.6 beats/min
SBP [2, 18]: 135.6 ± 4.0 b mmHg
DBP [2, 19]: 77.3 ± 4.7 b mmHg
HR [2, 19]: 368.6 ± 6.7 beats/min
SBP [2, 19]: 130.0 ± 3.9 b mmHg
DBP [2, 20]: 108.1 ± 3.8 mmHg
HR [2, 20]: 362.1 ± 12.9 beats/min
SBP [2, 20]: 161.0 ± 2.4 mmHg
Diastolic blood pressure: general differences among groups: p vs Vehicle [3, 21]: p < 0.01
Heart rate: general differences among groups: p vs Vehicle [3, 21]: ns
Systolic blood pressure: general differences among groups: p vs Vehicle [3, 21]: ns
effect on heart rate (in words) ([3]; lercanidipine 10 μg/kg, valsartan 30 μg/kg i.v., alone or together): no statistically significant modification on heart rate
time of statistically significant decrease in diastolic blood pressure after administration ([3]; within treatment vs […], lercanidipine 10 μg/kg or valsartan 30 μg/kg i.v.): 5 to 55 min
inhibition of ACE (ACE): does not inhibit
time of peak serum/plasma concentration [1]: 2 to 4 h

CCCCc1ncc(/C=C(\Cc2cccs2)C(=O)O)n1Cc1ccc(C(=O)O)cc1 [Eprosartan, (E)-2-butyl-1 (p-carboxybenzyl)-α-2-thienylmethylimidazole-5-acrylic acid]
affinity for the AT1 receptor relative to the AT2 receptor (AT1 receptor): about 1000 times
time of peak serum/plasma concentration [1]: 1 to 2 h

CCOc1nc2cccc(C(=O)O)c2n1Cc1ccc(-c2ccccc2-c2nnn[nH]2)cc1 [Candesartan free acid]
greater affinity for the AT1 receptor than the AT2 receptor (AT1 receptor): < 10,000
